# Where two headings read alike, the source gives them in different places.
# Columns and labels:
# β-receptors = test: β-blocking activity in reserpinized anesthetized cat (block of isoprenaline effect on heart rate and peripheral resistance; intrinsic activity); assay type: in vivo; conditions: for Intrinsic activity (increase in heart rate relative to basal): after final dose giving 100% blockade of isoprenaline response; for Block of isopren. ED50 HR (heart rate blockade) / Block of isopren. ED50 PR (peripheral resistance blockade): cumulative doses, vs isoprenaline i.v.; for Block of isopren. ED50 PR (peripheral resistance blockade): peripheral vascular resistance
# Protocol: Anesthetized cats (males and females weighing 2.5-3.5 kg) were pretreated with reserpine (5 mg/kg bodyweight administered intramuscularly) about 16 hours before the experiments. The animals were pretreated with reserpine in order to eliminate the endogenous sympathetic control of heart rate and vascular smooth muscle tone. The cats were anesthetized with pentobarbital (30 mg/kg bodyweight administered i.p.) and artificially ventilated with room air. A bilateral vagotomy was performed in the neck. Blood pressure was obtained from a cannulated carotid artery and heart rate was registered from a cardiotachometer, triggered by the electrocardiogram (ECG). One […] artery was cannulated and perfused with the cat's own blood, delivered at a constant flow rate with a Watson Marlow roller pump. The perfusion pressure was recorded with a Statham pressure transducer. The blood flow rate was so adjusted that the initially recorded perfusion pressure was slightly above the systemic arterial mean blood pressure. In the studied hind limb the paw was excluded from the circulation by a tight ligature. An isoprenaline dose administered intravenously was established giving a submaximal heart rate (HR) increase and a submaximal decrease of peripheral vascular resistance (PR). The latter is shown as a drop of perfusion pressure.
# To start the test, an initial dose of the test compound is injected into the animal. Ten minutes afterward the predetermined dose of isoprenaline is injected and the effect of the isoprenaline on the heart rate and peripheral resistance is noted. By comparing these observations with the normal response of the test animal to the predetermined dose of isoprenaline, the percent blockade of the HR and PR caused by the initial dose of test compound is calculated. The experiment is repeated with logrithmically increasing doses of the test compound (on a cumulative basis), alternating with the predetermined dose of isoprenaline every 10 minutes.
# After the final dose of the test compound is administered--which is sufficient to cause a 100% blockade of the isoprenaline response--the intrinsic activity of the test compound is noted as the increase in heart rate relative to the basal heart rate of the test animal before the experiment began.
# α-receptor = biological target: T1, α-receptor (Rattus norvegicus, UniProt P43140); test: α-blocking activity in isolated rat vas deferens (antagonism of noradrenaline contraction)
# T1 construct: from tissue; host or cells: isolated rat vas deferens
# T1 sequence (P43140 1-466): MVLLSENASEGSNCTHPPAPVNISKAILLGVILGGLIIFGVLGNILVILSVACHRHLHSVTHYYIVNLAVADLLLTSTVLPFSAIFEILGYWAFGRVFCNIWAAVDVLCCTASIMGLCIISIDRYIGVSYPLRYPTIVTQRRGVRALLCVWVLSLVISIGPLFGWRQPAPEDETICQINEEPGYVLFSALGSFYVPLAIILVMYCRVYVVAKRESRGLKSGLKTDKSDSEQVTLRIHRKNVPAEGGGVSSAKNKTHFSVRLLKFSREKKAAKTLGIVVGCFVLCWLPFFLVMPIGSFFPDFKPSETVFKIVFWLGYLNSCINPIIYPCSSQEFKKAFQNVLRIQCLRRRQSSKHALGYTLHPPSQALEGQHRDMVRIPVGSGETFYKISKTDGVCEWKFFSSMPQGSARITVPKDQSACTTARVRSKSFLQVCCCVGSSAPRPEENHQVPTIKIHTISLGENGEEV
# Protocol: α-blocking activity was tested in isolated rat vas deferens. Rats were decapitated and the vas deferens was immediately dissected out and mounted in an oxygenated Krebs Ringer solution at 37° C. Noradrenaline administered to the bath caused α-receptor mediated contraction of vas deferens, which was recorded with an isometric tension transducer. Dose response curves to noradrenaline were constructed before and after three increasing doses of the test compound. By using Schildt plots pA2 values for α-receptor blockade were obtained. By definition pA2 =-log concentration of an antagonist (in this case, the test compound) which requires that the concentration of the related agonist (in this case noradrenaline) be doubled in the presence of the antagonist in order to produce the same effect as the agonist caused in the absence of the antagonist.
# [1] = isolated rat vas deferens, Krebs Ringer, 37° C., noradrenaline agonist, Schildt plot, read-out: pA2 (α-receptor blockade) (converted)
SMILES,Intrinsic activity (increase in heart rate relative to basal) (β-receptors),Block of isopren. ED50 HR (heart rate blockade) (β-receptors),Block of isopren. ED50 PR (peripheral resistance blockade) (β-receptors),Kb (α-receptor; [1]),Kb (α-receptor)
"C#CCOc1ccccc1OCC(O)CNC(C)Cc1ccc(O)cc1 (stereo not shown) [Ex. 4, 3-[2-(4-hydroxyphenyl)-1-methylethylamino]-1-o-propargyloxyphenoxy-propanol-2]",+22 beats/min.,0.12 mg/kg,0.35 mg/kg,251 nM,–
"Cc1cccc(OCC(O)CNC(C)Cc2ccc(O)cc2)c1C (stereo not shown) [Ex. 9, 3-[2-(4-hydroxyphenyl)-1-methylethylamino]-1-[2,3-dimethylphenoxy]-propanol-2]",–,0.26 mg/kg,0.59 mg/kg,794 nM,–
"COCCc1ccc(OCC(O)CNC(C)C)cc1 (stereo not shown) [Metoprolol, metoprolol, reference compound]",0 beats/min.,0.2 mg/kg,4.7 mg/kg,–,–
"CCc1ccccc1OCC(O)C(C)NC(C)Cc1ccc(O)cc1 (stereo not shown) [Ex. 11, 3-methyl-3-[2-(4-hydroxyphenyl)-1-methylethylamino]-1-o-ethylphenoxy-propanol-2]",+18 beats/min.,0.3 mg/kg,0.5 mg/kg,631 nM,–
"COc1ccccc1OCC(O)CNC(C)Cc1ccc(O)cc1 (stereo not shown) [Ex. 10, 3-[2-(4-hydroxyphenyl)-1-methylethylamino]-1-o-methoxyphenoxy-propanol-2]",+40 beats/min.,0.04 mg/kg,0.5 mg/kg,398 nM,–
"CCc1ccccc1OCC(O)CNC(C)(C)Cc1ccc(O)cc1 (stereo not shown) [Ex. 6, 3-[2-(4-hydroxyphenyl)-1,1-dimethylethylamino]-1-o-ethylphenoxy-propanol-2]",+38 beats/min.,0.04 mg/kg,0.04 mg/kg,158 nM,–
"Cc1cccc(OCC(O)CNC(C)Cc2ccc(O)cc2)c1 (stereo not shown) [Ex. 15, 3-[2-(4-hydroxyphenyl)-1-methylethylamino]-1-m-methylphenoxy-propanol-2]",+16 beats/min.,0.3 mg/kg,0.9 mg/kg,6310 nM,–
"CCCc1ccccc1OCC(O)CNC(C)Cc1ccc(O)cc1 (stereo not shown) [Ex. 16, 3-[2-(4-hydroxyphenyl)-1-methylethylamino]-1-o-propylphenoxy-propanol-2]",+35 beats/min.,1.3 mg/kg,0.8 mg/kg,158 nM,–
"C=CCc1ccccc1OCC(O)CNC(C)Cc1ccc(O)cc1 (stereo not shown) [Ex. 3, 3-[2-(4-hydroxyphenyl)-1-methylethylamino]-1-o-allylphenoxy-propanol-2]",+33 beats/min.,0.7 mg/kg,1.1 mg/kg,–,63.1 nM
"CCc1ccccc1OCC(O)CNC(C)Cc1ccc(O)cc1 (stereo not shown) [Ex. 2, 3-[2-(4-hydroxyphenyl)-1-methylethylamino]-1-o-ethylphenoxy-propanol-2]",+32 beats/min.,0.11 mg/kg,0.15 mg/kg,–,63.1 nM
"Cc1ccccc1OCC(O)C(C)NC(C)(C)Cc1ccc(O)cc1 (stereo not shown) [Ex. 13, 3-methyl-3-[2-(4-hydroxyphenyl)-1,1-dimethylethylamino]-1-o-methylphenoxy-propanol-2]",+9 beats/min.,1.3 mg/kg,8.5 mg/kg,631 nM,–
"Cc1ccccc1OCC(O)CNC(C)Cc1ccc(O)cc1 (stereo not shown) [Ex. 1, 3-[2-(4-hydroxyphenyl)-1-methylethylamino]-1-o-methylphenoxy-propanol-2]",+16 beats/min.,0.07 mg/kg,0.07 mg/kg,158 nM,–
"CC(C)NCC(O)COc1cccc2ccccc12 (stereo not shown) [Propranolol, propranolol, reference compound]",0 beats/min.,0.1 mg/kg,0.1 mg/kg,–,–
"C=CCc1ccccc1OCC(O)C(C)NC(C)(C)Cc1ccc(O)cc1 (stereo not shown) [Ex. 14, 3-methyl-3-[2-(4-hydroxyphenyl)-1,1-dimethylethylamino]-1-o-allylphenoxy-propanol-2]",+3 beats/min.,2.5 mg/kg,0.6 mg/kg,39.8 nM,–
"C=CCc1ccccc1OCC(O)CNC(C)(C)Cc1ccc(O)cc1 (stereo not shown) [Ex. 7, 3-[2-(4-hydroxyphenyl)-1,1-dimethylethylamino]-1-o-allylphenoxy-propanol-2]",+39 beats/min.,0.09 mg/kg,0.06 mg/kg,398 nM,–
"C=CCc1ccccc1OCC(O)C(CC)NC(C)Cc1ccc(O)cc1 (stereo not shown) [Ex. 12, 3-ethyl-3-[2-(4-hydroxyphenyl)-1-methylethylamino]-1-o-allylphenoxy-propanol-2]",–,5.1 mg/kg,3.3 mg/kg,251 nM,–
"Cc1ccccc1OCC(O)CNC(C)(C)Cc1ccc(O)cc1 (stereo not shown) [Ex. 5, 3-[2-(4-hydroxyphenyl)-1,1-dimethylethylamino]-1-o-methylphenoxy-propanol-2]",+62 beats/min.,0.06 mg/kg,0.3 mg/kg,1580 nM,–

# Reference: US4161542A, “Heart active compounds” (priority 1975, dated 1979)
